These are literature values, as cited in patent US20060058387A1, “Composition and method for treating skin conditions” (priority 2004, published 2006).

For series [1] the following is noted: children, dosage intakes of 200-800 mg/kg.
The subject of another series is interstitial cystitis. The settings on record: bladder instillations of a 50% aqueous solution.

In the case of `CC1=C(/C=C/C(C)=C/C=C/C(C)=C/C(=O)O)C(C)(C)CCC1` [tretinoin, all-trans retinoic acid], where the note is “in vivo”, the “binding to plasma proteins” value is reported as “highly bound” and the terminal elimination half-life is 30 to 120 min. Further, for the setting “oral”, the oral bioavailability entry is “about 50%”. For the same molecule, for the setting “oral administration”, the “time to peak plasma concentrations” value is 1 to 2 h.
Consider `C[N+](C)(C)CC(O)CC(=O)[O-]` (stereo not drawn) [carnitin, γ-Trimethyl-β-hydroxybutyrobetain], for which the side effects result in series [1] is on record as “No side effects were observed”.
Turning to Sulphinyl-bis-methane [DMSO], the “effect on symptoms of interstitial cystitis” value in the series with interstitial cystitis is recorded as “appear to alleviate symptoms”.
